Results: the supplement of paper PMC10307832

Tests used:
Experiment in all cases: relative viability (nuclei count vs DMSO), 5 days (fraction); higher = more cells survive
ChaGo-K-1 = test system: ChaGo-K-1
Procedure, shortened: (§1)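 Dosing by pin tool came one day after lung cancer cell lines were seeded in 1536-well plates, using either one drug or a fixed anchor-drug dose plus five library-drug doses (not always all listed) in √10 steps. After 5 days, nuclei were counted on 4× images. Relative viability is treated-well nuclei count divided by vehicle-well nuclei count, and values are medians of duplicate plates.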

LXF-289 = test system: LXF-289
Procedure, shortened: as §1

PC-3 [JPC-3] = test system: PC-3 [JPC-3]
Procedure, shortened: as §1

NCI-H661 = test system: NCI-H661
Procedure, shortened: as §1

NCI-H1651 = test system: NCI-H1651
Procedure, shortened: as §1

NCI-H1355 = test system: NCI-H1355
Procedure, shortened: as §1

NCI-H838 = test system: NCI-H838
Procedure, shortened: as §1

NCI-H1975 = test system: NCI-H1975
Procedure, shortened: as §1

NCI-H2342 = test system: NCI-H2342
Procedure, shortened: as §1

NCI-H650 = test system: NCI-H650
Procedure, shortened: as §1

LCLC-97TM1 = test system: LCLC-97TM1
Procedure, shortened: as §1

NCI-H596 = test system: NCI-H596
Procedure, shortened: as §1

NCI-H1666 = test system: NCI-H1666
Procedure, shortened: as §1

HCC-78 = test system: HCC-78
Procedure, shortened: as §1

LK-2 = test system: LK-2
Procedure, shortened: as §1

LU99A = test system: LU99A
Procedure, shortened: as §1

NCI-H358 = test system: NCI-H358
Procedure, shortened: as §1

NCI-H1944 = test system: NCI-H1944
Procedure, shortened: as §1

BEN = test system: BEN
Procedure, shortened: as §1

NCI-H2087 = test system: NCI-H2087
Procedure, shortened: as §1

SK-MES-1 = test system: SK-MES-1
Procedure, shortened: as §1

LC-2-ad = test system: LC-2-ad
Procedure, shortened: as §1

In the case of `Cc1sc2c(c1C)C(c1ccc(Cl)cc1)=N[C@@H](CC(=O)OC(C)(C)C)c1nnc(C)n1-2` [JQ1] + Nc1ncn([C@H]2C[C@H](O)[C@@H](CO)O2)c(=O)n1 [Decitabine] (partner 2 µM), the relative viability (ChaGo-K-1; first compound 0.04 µM) is reported as 0.552, the relative viability (ChaGo-K-1; first compound 0.1265 µM) is reported as 0.472 and the relative viability (ChaGo-K-1; first compound 0.4 µM) is reported as 0.539. For the same compound, the relative viability (ChaGo-K-1; first compound 1.265 µM) was 0.392, the relative viability (ChaGo-K-1; first compound 4 µM) was 0.36 and the relative viability (LXF-289; first compound 0.04 µM) was 0.368. It also gave a relative viability (LXF-289; first compound 0.1265 µM) of 0.401, a relative viability (LXF-289; first compound 0.4 µM) of 0.344 and a relative viability (LXF-289; first compound 1.265 µM) of 0.226. For the same compound, the relative viability (LXF-289; first compound 4 µM) was 0.222, the relative viability (PC-3 [JPC-3]; first compound 0.04 µM) was 0.864 and the relative viability (PC-3 [JPC-3]; first compound 0.1265 µM) was 0.796. The relative viability (PC-3 [JPC-3]; first compound 0.4 µM) was 0.778, the relative viability (PC-3 [JPC-3]; first compound 1.265 µM) was 0.509 and the relative viability (PC-3 [JPC-3]; first compound 4 µM) was 0.561. It also gave a relative viability (NCI-H661; first compound 0.04 µM) of 0.505, a relative viability (NCI-H661; first compound 0.1265 µM) of 0.47 and a relative viability (NCI-H661; first compound 0.4 µM) of 0.527. It also gave a relative viability (NCI-H661; first compound 1.265 µM) of 0.475, a relative viability (NCI-H661; first compound 4 µM) of 0.492 and a relative viability (NCI-H1651; first compound 0.04 µM) of 0.651. It also gave a relative viability (NCI-H1651; first compound 0.1265 µM) of 0.487, a relative viability (NCI-H1651; first compound 0.4 µM) of 0.442 and a relative viability (NCI-H1651; first compound 1.265 µM) of 0.524. It also gave a relative viability (NCI-H1651; first compound 4 µM) of 0.411, a relative viability (NCI-H1355; first compound 0.04 µM) of 0.348 and a relative viability (NCI-H1355; first compound 0.1265 µM) of 0.342. It also gave a relative viability (NCI-H1355; first compound 0.4 µM) of 0.337, a relative viability (NCI-H1355; first compound 1.265 µM) of 0.319 and a relative viability (NCI-H1355; first compound 4 µM) of 0.249. It also gave a relative viability (NCI-H838; first compound 0.04 µM) of 0.458, a relative viability (NCI-H838; first compound 0.1265 µM) of 0.371 and a relative viability (NCI-H838; first compound 0.4 µM) of 0.347. The relative viability (NCI-H838; first compound 1.265 µM) was 0.282, the relative viability (NCI-H838; first compound 4 µM) was 0.235 and the relative viability (NCI-H1975; first compound 0.04 µM) was 0.393. For the same compound, the relative viability (NCI-H1975; first compound 0.1265 µM) was 0.282, the relative viability (NCI-H1975; first compound 0.4 µM) was 0.331 and the relative viability (NCI-H1975; first compound 1.265 µM) was 0.261. For the same compound, the relative viability (NCI-H1975; first compound 4 µM) was 0.232, the relative viability (NCI-H2342; first compound 0.04 µM) was 0.79 and the relative viability (NCI-H2342; first compound 0.1265 µM) was 0.636. For the same compound, the relative viability (NCI-H2342; first compound 0.4 µM) was 0.737, the relative viability (NCI-H2342; first compound 1.265 µM) was 0.76 and the relative viability (NCI-H2342; first compound 4 µM) was 0.665. For the same compound, the relative viability (NCI-H650; first compound 0.04 µM) was 0.278, the relative viability (NCI-H650; first compound 0.1265 µM) was 0.305 and the relative viability (NCI-H650; first compound 0.4 µM) was 0.316. It also gave a relative viability (NCI-H650; first compound 1.265 µM) of 0.251, a relative viability (NCI-H650; first compound 4 µM) of 0.249 and a relative viability (LCLC-97TM1; first compound 0.04 µM) of 0.231. The relative viability (LCLC-97TM1; first compound 0.1265 µM) was 0.223, the relative viability (LCLC-97TM1; first compound 0.4 µM) was 0.188 and the relative viability (LCLC-97TM1; first compound 1.265 µM) was 0.156. For the same compound, the relative viability (LCLC-97TM1; first compound 4 µM) was 0.125, the relative viability (NCI-H596; first compound 0.04 µM) was 1.04 and the relative viability (NCI-H596; first compound 0.1265 µM) was 0.978. For the same compound, the relative viability (NCI-H596; first compound 0.4 µM) was 0.679, the relative viability (NCI-H596; first compound 1.265 µM) was 0.611 and the relative viability (NCI-H596; first compound 4 µM) was 0.62. The relative viability (NCI-H1666; first compound 0.04 µM) was 0.763, the relative viability (NCI-H1666; first compound 0.1265 µM) was 0.745 and the relative viability (NCI-H1666; first compound 0.4 µM) was 0.577. It also gave a relative viability (NCI-H1666; first compound 1.265 µM) of 0.589, a relative viability (NCI-H1666; first compound 4 µM) of 0.504 and a relative viability (HCC-78; first compound 0.04 µM) of 0.604. The relative viability (HCC-78; first compound 0.1265 µM) was 0.529, the relative viability (HCC-78; first compound 0.4 µM) was 0.691 and the relative viability (HCC-78; first compound 1.265 µM) was 0.563. It also gave a relative viability (HCC-78; first compound 4 µM) of 0.588, a relative viability (LK-2; first compound 0.04 µM) of 0.272 and a relative viability (LK-2; first compound 0.1265 µM) of 0.351. For the same compound, the relative viability (LK-2; first compound 0.4 µM) was 0.27, the relative viability (LK-2; first compound 1.265 µM) was 0.132 and the relative viability (LK-2; first compound 4 µM) was 0.129. The relative viability (LU99A; first compound 0.04 µM) was 0.932, the relative viability (LU99A; first compound 0.4 µM) was 0.623 and the relative viability (LU99A; first compound 1.265 µM) was 0.293. It also gave a relative viability (LU99A; first compound 4 µM) of 0.254, a relative viability (NCI-H358; first compound 0.04 µM) of 0.212 and a relative viability (NCI-H358; first compound 0.1265 µM) of 0.227. It also gave a relative viability (NCI-H358; first compound 0.4 µM) of 0.235, a relative viability (NCI-H358; first compound 1.265 µM) of 0.188 and a relative viability (NCI-H358; first compound 4 µM) of 0.206. It also gave a relative viability (NCI-H1944; first compound 0.04 µM) of 0.438, a relative viability (NCI-H1944; first compound 0.1265 µM) of 0.405 and a relative viability (NCI-H1944; first compound 0.4 µM) of 0.409. For the same compound, the relative viability (NCI-H1944; first compound 1.265 µM) was 0.335, the relative viability (NCI-H1944; first compound 4 µM) was 0.313 and the relative viability (BEN; first compound 0.04 µM) was 0.712. It also gave a relative viability (BEN; first compound 0.1265 µM) of 0.578, a relative viability (BEN; first compound 0.4 µM) of 0.63 and a relative viability (BEN; first compound 1.265 µM) of 0.511. For the same compound, the relative viability (BEN; first compound 4 µM) was 0.38, the relative viability (NCI-H2087; first compound 0.04 µM) was 0.316 and the relative viability (NCI-H2087; first compound 0.1265 µM) was 0.251. It also gave a relative viability (NCI-H2087; first compound 0.4 µM) of 0.262, a relative viability (NCI-H2087; first compound 1.265 µM) of 0.151 and a relative viability (NCI-H2087; first compound 4 µM) of 0.18. For the same compound, the relative viability (SK-MES-1; first compound 0.04 µM) was 0.347, the relative viability (SK-MES-1; first compound 0.1265 µM) was 0.385 and the relative viability (SK-MES-1; first compound 0.4 µM) was 0.315. For the same compound, the relative viability (SK-MES-1; first compound 1.265 µM) was 0.194, the relative viability (SK-MES-1; first compound 4 µM) was 0.216 and the relative viability (LC-2-ad; first compound 0.04 µM) was 0.754. For the same compound, the relative viability (LC-2-ad; first compound 0.1265 µM) was 0.621, the relative viability (LC-2-ad; first compound 0.4 µM) was 0.708 and the relative viability (LC-2-ad; first compound 1.265 µM) was 0.574. The relative viability (LC-2-ad; first compound 4 µM) was 0.3.
